Measurements taken from ChEMBL document CHEMBL1201862, “PubChem BioAssay data set” (2004).
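A five-concentration, 48-hour dose response in 96-well plates underlies each endpoint, interpolated linearly between surrounding concentrations. At the GI50, growth is halved.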 The source made the active and inactive calls. No stated cut-off is given here; in the data, active = GI50 up to about 1.1 µM and inactive = higher.

Assays:
Experiment in all cases: growth of human tumour cells (NCI), 48 h
SK-MEL-5 = system: SK-MEL-5
786-0 = system: 786-0
DU-145 = system: DU-145
SNB-19 = system: SNB-19
HL-60 = system: HL-60
COLO 205 = system: COLO 205
RXF 393 = system: RXF 393
MCF7 = system: MCF7
TK-10 = system: TK-10
SK-MEL-2 = system: SK-MEL-2
HOP-92 = system: HOP-92
SN12C = system: SN12C
NCI-H226 = system: NCI-H226
HOP-62 = system: HOP-62
A549 = system: A549
UACC-257 = system: UACC-257
UO-31 = system: UO-31
BT-549 = system: BT-549
A498 = system: A498
M14 = system: M14
Malme-3M = system: Malme-3M
HCC 2998 = system: HCC 2998
U-251 = system: U-251
HCT-116 = system: HCT-116
EKVX = system: EKVX
SNB-75 = system: SNB-75
MDA-N = system: MDA-N
PC-3 = system: PC-3
UACC-62 = system: UACC-62
MOLT-4 = system: MOLT-4
OVCAR-3 = system: OVCAR-3
OVCAR-5 = system: OVCAR-5
SF-268 = system: SF-268
KM12 = system: KM12
Hs-578T = system: Hs-578T
OVCAR-4 = system: OVCAR-4
CCRF-CEM = system: CCRF-CEM
RPMI-8226 = system: RPMI-8226
SK-OV-3 = system: SK-OV-3
IGROV-1 = system: IGROV-1
ACHN = system: ACHN
HT-29 = system: HT-29
CAKI-1 = system: CAKI-1
K562 = system: K562
HCT-15 = system: HCT-15
LOX IMVI = system: LOX IMVI
OVCAR-8 = system: OVCAR-8
SK-MEL-28 = system: SK-MEL-28
SW-620 = system: SW-620
SR = system: SR
NCI-H23 = system: NCI-H23
NCI/ADR-RES = system: NCI/ADR-RES
SF-295 = system: SF-295
MDA-MB-231 = system: MDA-MB-231
SF-539 = system: SF-539
MDA-MB-435 = system: MDA-MB-435
NCI-H460 = system: NCI-H460
T47D = system: T47D

CCOP(=O)(OCC)C(F)(F)CC1CCCCC1
GI50 (SK-MEL-5): > 10 µM (inactive)
GI50 (786-0): > 10 µM (inactive)
GI50 (DU-145): > 10 µM (inactive)
GI50 (SNB-19): > 10 µM (inactive)
GI50 (HL-60): > 10 µM (inactive)
GI50 (COLO 205): > 10 µM (inactive)
GI50 (RXF 393): > 10 µM (inactive)
GI50 (MCF7): > 10 µM (inactive)
GI50 (TK-10): > 10 µM (inactive)
GI50 (SK-MEL-2): > 10 µM (inactive)
GI50 (HOP-92): > 10 µM (inactive)
GI50 (SN12C): > 10 µM (inactive)
GI50 (NCI-H226): > 10 µM (inactive)
GI50 (HOP-62): > 10 µM (inactive)
GI50 (A549): > 10 µM (inactive)
GI50 (UACC-257): > 10 µM (inactive)
GI50 (UO-31): > 10 µM (inactive)
GI50 (BT-549): > 10 µM (inactive)
GI50 (A498): > 10 µM (inactive)
GI50 (M14): > 10 µM (inactive)
GI50 (Malme-3M): > 10 µM (inactive)
GI50 (HCC 2998): > 10 µM (inactive)
GI50 (U-251): > 10 µM (inactive)
GI50 (HCT-116): > 10 µM (inactive)
GI50 (EKVX): > 10 µM (inactive)
GI50 (SNB-75): 4.38 µM (inactive)
GI50 (MDA-N): > 10 µM (inactive)
GI50 (PC-3): > 10 µM (inactive)
GI50 (UACC-62): > 10 µM (inactive)
GI50 (MOLT-4): > 10 µM (inactive)
GI50 (OVCAR-3): > 10 µM (inactive)
GI50 (OVCAR-5): > 10 µM (inactive)
GI50 (SF-268): > 10 µM (inactive)
GI50 (KM12): > 10 µM (inactive)
GI50 (Hs-578T): > 10 µM (inactive)
GI50 (OVCAR-4): > 10 µM (inactive)
GI50 (CCRF-CEM): > 10 µM (inactive)
GI50 (RPMI-8226): > 10 µM (inactive)
GI50 (SK-OV-3): > 10 µM (inactive)
GI50 (IGROV-1): > 10 µM (inactive)
GI50 (ACHN): > 10 µM (inactive)
GI50 (HT-29): > 10 µM (inactive)
GI50 (CAKI-1): > 10 µM (inactive)
GI50 (K562): > 10 µM (inactive)
GI50 (HCT-15): > 10 µM
GI50 (LOX IMVI): > 10 µM (inactive)
GI50 (OVCAR-8): > 10 µM (inactive)
GI50 (SK-MEL-28): > 10 µM (inactive)
GI50 (SW-620): > 10 µM (inactive)
GI50 (SR): > 10 µM (inactive)
GI50 (NCI-H23): > 10 µM (inactive)
GI50 (NCI/ADR-RES): > 10 µM (inactive)
GI50 (SF-295): > 10 µM (inactive)
GI50 (MDA-MB-231): > 10 µM (inactive)
GI50 (SF-539): > 10 µM (inactive)
GI50 (MDA-MB-435): > 10 µM (inactive)
GI50 (NCI-H460): > 10 µM (inactive)
GI50 (T47D): > 10 µM (inactive)
